Experimental data: ChEMBL document CHEMBL1128978, “1-Hydroxy-1,4-dihydroquinoxaline-2,3-diones: Novel antagonists at NMDA receptor glycine sites” (Bioorg Med Chem Lett, 1996)

Test: Electrophysiological assays in Xenopus oocytes expressing cloned NMDA receptor (NR1A/2C)
Type: cell-based
Settings: Rattus norvegicus, Oocyte

IC50 [nM] | SMILES
80 | O=c1[nH]c2cc(Cl)c(Cl)cc2n(O)c1=O
2500 | Oc1nc2cc(C(F)(F)F)cc(Br)c2nc1O
54000 | O=c1[nH]c2c(Br)cc(C(F)(F)F)cc2n(O)c1=O
93 | Nc1c(Cl)c(Cl)cc2nc(O)c(O)nc12
2700 | O=c1[nH]c2c(Br)c(Cl)c(Cl)cc2n(O)c1=O
1800 | Nc1c(Cl)c(Cl)cc2c1[nH]c(=O)c(=O)n2O
19000 | O=c1[nH]c2c(Cl)cc(Cl)cc2n(O)c1=O
2100 | Oc1nc2cc(C(F)(F)F)cc(Cl)c2nc1O
280 | Oc1nc2cc(Cl)cc(Cl)c2nc1O
1300 | Oc1nc2cc(Br)cc(Br)c2nc1O
210 | Oc1nc2cc(Cl)c(Cl)c(Br)c2nc1O
25000 | O=c1[nH]c2c(Cl)cc(C(F)(F)F)cc2n(O)c1=O
2500 | O=c1[nH]c2c(Cl)c(Cl)c(Cl)cc2n(O)c1=O
20000 | O=c1[nH]c2c(Br)cc(Br)cc2n(O)c1=O
30 | Oc1nc2cc(Cl)c(Cl)c(Cl)c2nc1O
130 | Oc1nc2cc(Cl)c(Cl)cc2nc1O [2,3-DIHYDROXY-6,7-DICHLOROQUINOXALINE]
